Test results taken from patent publication US9950989B2, “Cyclic hydrocarbon compound” (TOA EIYO LTD., priority 2014, dated 2018).
Structures can show the parent of a compound that is named as a salt.

Columns and labels:
Male SD rats = assay: Atrial effective refractory period (AERP) prolonging effect, atrium electrostimulation model; format: in vivo, rat; conditions: anesthetized male SD rats, drug 10 mg/kg/10 min, basic cycle 120 ms, three examples per group
biochemical = assay: biochemical; parameters: species or system Influenza A Virus H1N1
[1] = test system: atrial fibrillation model; conditions: described in Patent Document 1 (JP 2012-236814 A); cited from earlier work

SMILES	ΔAERP prolongation (Male SD rats)	IC50 (biochemical)	atrial fibrillation suppression effect [1]
CCC(CC)O[C@@H]1C=C(C(=O)Cc2ccccc2)C[C@H](N)[C@H]1NC(C)=O [Example 7, N-[(1R,2R,6S)-6-amino-2-(1-ethylpropoxy)-4-phenylacetyl-3-cyclohexen-1-yl]acetamide]	22.0 ms		
CCC(CC)O[C@@H]1C=C(C(=O)c2ccccc2)C[C@H](N)[C@H]1NC(C)=O.Cl [Example 6, N-[(1R,2R,6S)-6-amino-4-benzoyl-2-(1-ethylpropoxy)-3-cyclohexen-1-yl]acetamide hydrochloride]	35.7 ms	86 µM	
CCN[C@@H]1[C@@H](N)CC(C(=O)c2cccs2)=C[C@H]1OC(CC)CC [Example 26, [(3R,4R,5S)-5-amino-4-ethylamino-3-(1-ethylpropoxy)cyclohexen-1-yl]thiophene-2-yl-methanone]		> 300 µM	
CCCCCCC(=O)C1=C[C@@H](OC(CC)CC)[C@H](NC(C)=O)[C@@H](N)C1 [Example 28, N-[(1R,2R,6S)-6-amino-2-(1-ethylpropoxy)-4-heptanoyl-3-cyclohexen-1-yl]acetamide]		24.6 µM	
CCC(CC)O[C@@H]1C=C(C(=O)c2ccc(C)o2)C[C@H](N)[C@H]1NC(C)=O [Example 3, N-[(1R,2R,6S)-6-amino-2-(1-ethylpropoxy)-4-(5-methylfuran-2-carbonyl)-3-cyclohexen-1-yl]acetamide]	14.5 ms		
CCOC(=O)C1=C[C@@H](OC(CC)CC)[C@H](NC(C)=O)[C@@H](N)C1 [Oseltamivir, reference compound]	15.7 ms		has an atrial fibrillation suppression effect
CCC(CC)O[C@@H]1C=C(C(=O)c2ccc(OC)s2)C[C@H](N)[C@H]1NC(C)=O [Example 30, N-[(1R,2R,6S)-6-amino-2-(1-ethylpropoxy)-4-(5-methoxythiophene-2-carbonyl)-3-cyclohexen-1-yl]acetamide hydrochloride]		10.6 µM	
CCC(CC)O[C@@H]1C=C(C(=O)c2ccccc2)C[C@H](N)[C@H]1NC(=O)C(C)(C)C [Example 17, N-[(1R,2R,6S)-6-amino-4-benzoyl-2-(1-ethylpropoxy)-3-cyclohexen-1-yl]-2,2-dimethylpropionamide]	39.3 ms	> 300 µM	
CCC(CC)O[C@@H]1C=C(C(=O)c2ccc(C)s2)C[C@H](N)[C@H]1NC(C)=O [Example 4, N-[(1R,2R,6S)-6-amino-2-(1-ethylpropoxy)-4-(5-methylthiophene-2-carbonyl)-3-cyclohexen-1-yl]acetamide]		66.3 µM	
CCC(CC)O[C@@H]1C=C(C(=O)c2ccc(F)cc2)C[C@H](N)[C@H]1NC(C)=O [Example 5, N-[(1R,2R,6S)-6-amino-2-(1-ethylpropoxy)-4-(4-fluorobenzoyl)-3-cyclohexen-1-yl]acetamide]	22.0 ms		
CCOCC1=C[C@@H](OC(CC)CC)[C@H](NC(C)=O)[C@@H](N)C1 [Example 23, N-[(1R,2R,6S)-6-amino-4-ethoxymethyl-2-(1-ethylpropoxy)-3-cyclohexen-1-yl]acetamide]	30.0 ms	80.1 µM	
CCC(CC)O[C@@H]1C=C(C(=O)c2ccccc2)C[C@H](N)[C@H]1NC(=O)c1ccccc1 [Example 16, N-[(1R,2R,6S)-6-amino-4-benzoyl-2-(1-ethylpropoxy)-3-cyclohexen-1-yl]benzamide]	18.7 ms		
CCC(CC)O[C@@H]1C=C(C(=O)c2ccccc2)C[C@H](NC(C)=O)[C@H]1N [Example 18, N-[(1S,5R,6R)-6-amino-3-benzoyl-5-(1-ethylpropoxy)-3-cyclohexen-1-yl]acetamide]	24.0 ms	> 300 µM	
CCC(CC)O[C@@H]1C=C(C(O)c2ccccc2)C[C@H](N)[C@H]1NC(C)=O (stereo partly drawn) [Example 19, N-[(1R,2R,6S)-6-amino-2-(1-ethylpropoxy)-4-(hydroxyphenylmethyl)-3-cyclohexen-1-yl]acetamide]		87.3 µM	
CCC(CC)O[C@@H]1C=C(C(=O)C(C)(C)C)C[C@H](N)[C@H]1NC(C)=O [Example 10, N-[(1R,2R,6S)-6-amino-4-(2,2-dimethylpropionyl)-2-(1-ethylpropoxy)-3-cyclohexen-1-yl]acetamide]	16.0 ms		
CCC(CC)O[C@@H]1C=C(C(=O)c2cccs2)C[C@H](NC(C)=O)[C@H]1N [Example 21, N-[(1S,5R,6R)-6-amino-5-(1-ethylpropoxy)-3-(thiophene-2-carbonyl)-3-cyclohexen-1-yl]acetamide]	29.5 ms	> 300 µM	
CCC(CC)O[C@@H]1C=C(C(=O)c2cccs2)C[C@H](N)[C@H]1NC(=O)CC(C)C [Example 25, N-[(1R,2R,6S)-6-amino-2-(1-ethylpropoxy)-4-(thiophene-2-carbonyl)-3-cyclohexen-1-yl]-3-methylbutyramide]	37.7 ms		
CCNC(=O)N[C@@H]1[C@@H](N)CC(C(=O)c2cccs2)=C[C@H]1OC(CC)CC [Example 27, [(1R,2R,6S)-6-amino-2-(1-ethylpropoxy)-4-(thiophene-2-carbonyl)cyclohexen-3-yl]-3-ethylurea]	56.0 ms	> 300 µM	
CCC(CC)O[C@@H]1C=C(C(=O)c2cccs2)C[C@H](N)[C@H]1NC(C)=O [Example 1, N-[(1R,2R,6S)-6-amino-2-(1-ethylpropoxy)-4-(thiophene-2-carbonyl)-3-cyclohexen-1-yl]acetamide]	40.0 ms	71.7 µM	
CCCCC(=O)C1=C[C@@H](OC(CC)CC)[C@H](NC(C)=O)[C@@H](N)C1.Cl [Example 12, N-[(1R,2R,6S)-6-amino-2-(1-ethylpropoxy)-4-pentanoyl-3-cyclohexen-1-yl]acetamide hydrochloride]	23.0 ms	47.3 µM	
CCC(CC)O[C@@H]1CC(C(O)c2ccccc2)C[C@H](N)[C@H]1NC(C)=O (stereo partly drawn) [Example 24, N-[(1R,2S,6R)-2-amino-6-(1-ethylpropoxy)-4-(hydroxyphenylmethyl)cyclohexyl]acetamide]	20.5 ms	> 300 µM	
